Reference: patent publication US11845735B2, “Method for synthesizing (RS)-Warfarin” (priority 2021, dated 2023)

Columns and labels:
[1] = test system: extrinsic and common coagulation pathways; assay: prothrombin time (PT) test in rats after oral feeding; format: in vivo; settings: male rats; for International Normalized Ratio / Prothrombin Time: 5 mg/kg fed, blood collected after 24 hours, citrated plasma
Description: In this example, the anticoagulation effect of an exemplary (RS)-Warfarin was evaluated by an exemplary prothrombin time (PT) test. PT test may refer to an exemplary method carried out for monitoring oral anticoagulant therapy. PT test may measure the period of time it takes for a clot to form in a blood sample. In particular, PT test may measure the activity of exemplary coagulation factors involved in one or more exemplary extrinsic and common coagulation pathways. In one or more exemplary embodiments, prothrombin time may increase in response to inhibition of vitamin K-dependent procoagulant clotting factors (i.e., exemplary factors VII and X and prothrombin).
(§1) In an exemplary implementation, PT test may be accomplished in an animal model and may be compared to an exemplary commercial sample of Warfarin. In an exemplary implementation, 24 male rats were randomly separated into four groups, six rats in each group. Group I received distilled water (Control Group), Group II received an exemplary commercial Warfarin with an exemplary dose of 5 mg commercial Warfarin per weight of each rat (5 mg/kg), Group III received an exemplary synthesized (RS)-Warfarin with an exemplary dose of 5 mg (RS)-Warfarin per weight of each rat (5 mg/kg (Dose 1)), and Group IV received synthesized (RS)-Warfarin with an exemplary dose of 10 mg (RS)-Warfarin per weight of each rat (10 mg/kg (Dose 2)).
In an exemplary implementation, PT test was performed by feeding exemplary commercial Warfarin and Dose 1 of exemplary synthesized (RS)-Warfarin to Group II and Group III of rats, respectively. After 24 hours, exemplary blood samples were collected from two rats that were randomly selected from each of Group II and Group III. About 1.8 ml of each blood sample was added to exemplary tubes containing an exemplary anticoagulant, sodium citrate dihydrate. After centrifugation of each citrated blood sample at 2000 gr for 15 minutes, plasma was separated to be used for PT analysis. In an exemplary implementation, PT test may be performed by adding a mixture of thromboplastin and calcium to citrated plasma. Thromboplastin is a protein-phospholipid extract of tissue that may contain necessary phospholipids and tissue factors for promoting activation of factor X by factor VII. At the beginning of an exemplary anticoagulant therapy (e.g., Warfarin therapy), prothrombin time may reflect an exemplary depression of factor VII, because factor VII may have the shortest half-life among exemplary vitamin K-dependent factors. During an exemplary maintenance therapy, PT test may be sensitive to the decrease in prothrombin and factor X levels. PTs and international normalized ratios (INRs) were measured for Group II and Group III of rats.

[2] = clinical chemistry tests for toxicity (urea, creatinine, SGOT, SGPT, LDH) in rats; format: in vivo; settings: 5 mg/kg (Dose 1) and 10 mg/kg (Dose 2) vs commercial Warfarin 5 mg/kg, blood after 24 hours
Description: as §1
In this example, toxicity of exemplary (RS)-Warfarin was assessed using one or more exemplary clinical chemistry tests, such as urea test, creatinine test, SGOT (glutamic oxaloacetic transaminase) test, SGPT (glutamate-pyruvate transaminase) test, and LDH (lactate dehydrogenase) test. In an exemplary implementation, Group II, Group III, and Group IV of rats were fed with exemplary commercial Warfarin, Dose 1 of exemplary synthesized (RS)-Warfarin, and Dose 2 of exemplary synthesized (RS)-Warfarin, respectively. […]

| Compound | anticoagulant effect in comparison to commercial Warfarin (PTs and INRs) ([1]; 5 mg/kg each, 24 hours) | International Normalized Ratio [1] | Prothrombin Time [1] [s] | urea, creatinine, SGOT, SGPT and LDH test results compared to rats fed with commercial Warfarin (FIG. 8) [2] |
| --- | --- | --- | --- | --- |
| CC(=O)CC(c1ccccc1)c1c(O)c2ccccc2oc1=O (racemic) [Exemplary Synthesized (RS)-Warfarin, 4-hydroxy-3-(3-oxo-1-phenylbutyl)-2H-1-benzopyran-2-one] | significantly increased anticoagulant effect | 3.4 | 24.4 | may not significantly differ |
| CC(=O)CC(c1ccccc1)c1c(O)c2ccccc2oc1=O (stereo not drawn) [Exemplary Commercial Warfarin, Warfarin] | – | 2.19 | 18.6 | – |
